We go through one compound from EPA's ToxRefDB 2.

Data set [1] deals with rat. To be noted: Carcinogenicity, fischer, Oral, Gavage/Intubation, dose end: 102 week, group: systemic.
In data set [2] the test system is rat. To be noted: Subchronic oral toxicity in rodents, fischer, Gavage/Intubation, dose end: 13 week, group: systemic.
Data set [3] relates to mouse. To be noted: Subchronic oral toxicity in rodents, b6c3f1, Gavage/Intubation, dose end: 13 week, group: systemic.
For data set [4], the system named is mouse. To be noted: Carcinogenicity, b6c3f1, Oral, Gavage/Intubation, dose end: 102 week, group: systemic.
Where [5] appears, read: systemic / pathology microscopic / intestine large / adenocarcinoma + systemic / pathology microscopic / intestine large / polyp adenomatous….
Where [6] appears, read: systemic / pathology microscopic / kidney / cytomegaly + systemic / pathology microscopic / liver / necrosis.
The mark [7] stands for this setting: systemic / in life observation / body weight / body weight + systemic / in life observation / mortality / mortality + systemic / pathology ….
Where [8] appears, read: systemic / in life observation / body weight / body weight + systemic / pathology microscopic / liver / granuloma + systemic / pathology ….
The mark [9] stands for this setting: systemic / pathology microscopic / kidney / cytomegaly + systemic / pathology microscopic / thyroid gland / hyperplasia.
Setting [10] is: systemic / pathology microscopic / kidney / cytomegaly + systemic / pathology microscopic / thyroid gland / hyperplasia + systemic / ….

Turning to `ClC(Cl)Br` [Bromodichloromethane], the LOAEL in data set [1] (setting [5]) is above 100 mg/kg/day; in data set [2] (setting [7]), above 300 mg/kg/day; in data set [3] (setting [8]), above 400 mg/kg/day; in data set [4] (setting [9]), 25 mg/kg/day. In addition, the NOAEL in data set [1] (setting [5]) was at least 100 mg/kg/day; in data set [2] (setting [7]), at least 300 mg/kg/day; in data set [3] (setting [8]) it was at least 400 mg/kg/day; in data set [4] (setting [9]) it was below 25 mg/kg/day. Moreover, the LEL was found to be 50 mg/kg/day in data set [1] (setting [6]), 150 mg/kg/day in data set [2] (systemic / in life observation / body weight / body weight), 100 mg/kg/day in data set [3] (systemic / in life observation / body weight / body weight + systemic / pathology microscopic / kidney / necrosis) and 25 mg/kg/day in data set [4] (setting [10]). For the same compound, the NEL in data set [1] (setting [6]) is below 50 mg/kg/day; in data set [2] (setting [7]), 75 mg/kg/day; in data set [4] (setting [10]) it was below 25 mg/kg/day.
